Experimental data from US7341992B2, “Lectin-like domain of thrombomodulin and its therapeutic use” (Vlaams Interuniversitair Instituut Voor Biotechnologie VZW, priority 2001, dated 2008).

System: TM^wt/wt endothelial cells
Assay: Static adhesion assay: murine PMNs on endothelial cells from TM^wt/wt mice
Type: cell-based
Details: addition of PPACK to exclude thrombin effect
Source text: Table 8: Static adhesion assay. […] This is a representative experiment performed 3 times, on 3 different clones each. For each experiment, 5 wells were used for each condition, and adherent leukocytes in 15 microscopic fields were counted.
Since TM expression is not restricted to vascular endothelial cells, but is also synthesized by other cells including neutrophils and monocytes, we considered the possibility that the increase in leukocyte efflux into the lungs might be a result of TM alterations on either the neutrophils and/or the vascular endothelium. fEND.5 cells are an established PymT transformed murine endothelial cell line that expresses full-length, functional TM on the cell surface. […] Adhesion and rolling of neutrophils to transformed endothelial cells derived from the TM^wt/wt and TM^LeD/LeD mice were consequently evaluated. […] This was determined not to be an endothelial cell clone-specific artifact, as 3 different clones of endothelial cells were evaluated with similar results. There was also a significant 3-fold increase in PMN and lymphocyte adhesion to resting TM^LeD/LeD endothelial cells as compared to TM^wt/wt endothelial cells (Table 8). […]
Neutrophils and lymphocytes were isolated from bone marrow according to the method of Lowell and Berton ^35. Each population was assessed to be over 95% pure by microscopic analysis after Wright staining. […]

SMILES: NC(N)=NCCC[C@H](NC(=O)[C@@H]1CCCN1C(=O)[C@H](N)Cc1ccccc1)C(=O)CCl [PPACK]
- effect on the results of the adhesion assays: no effect
